Paper PMC10331946, “Characterization of Natural Compounds as Inhibitors of NS1 Endonuclease from Canine Parvovirus Type 2” (Journal of Microbiology and Biotechnology, 2023)

What was measured:
CPV-2 NS1 endonuclease = target: T1, CPV-2 NS1 endonuclease (Canine parvovirus type 2, UniProt P12929); assay: FRET nicking assay, inhibition of recombinant CPV-2 NS1 endonuclease; type: biochemical, Canine parvovirus type 2 (CPV-2); conditions: for Inhibition (%) at 50 μM: 50 μM inhibitor, 1.25 μg enzyme, 50 mM Tris/HCl pH 7.0, 37°C; for Inhibition (%) at 50 μM / IC50: 0.6 μM FRET substrate, 3 min; for inhibition at 50 µM: pH 7, read-out: Inhibition (%) at 50 μM, 50 μM inhibitor, 0.6 μM FRET substrate, 1.25 μg enzyme, 50 mM Tris/HCl pH 7.0, 37°C, 3 min; for IC50: single compounds, 1.25 μg endonuclease, pH 7.0, 300 mM NaCl, 37°C, curcumin by 4PL, others by linear regression
T1 construct: hexahistidine (N); hexahistidine (C); made in house; host or cells: E. coli BL21 (De3) pLysS
Excerpt: The fluorescence resonance energy transfer (FRET) substrate, which was composed of an oligonucleotide 5¢-TAA CCT TAC CAT AAG TA↓T CAA TCT GTC TTT-3¢ labeled with carboxyfluorescein (FAM) at the 5¢-terminus and black hole quencher 1 (BHQ1) at the 3¢-terminus as the energy transfer pair, was designed and synthesized by Bioneer Corp. (Korea) (Fig. S1).
cDNA of the CPV-2 NS1 endonuclease gene was synthesized after codon optimization (Genscript, USA) based on the N-terminal amino acid sequence (amino acids 1–277 of the DNA-binding region) of CPV-2 NS1 endonuclease (GenBank Accession No. AAV36764.1) (Fig. S2). The CPV-2 NS1 endonuclease gene was imbedded into the pET-28a (+) vector (Novagen, Germany) with hexahistidine tags at the N- and C-termini. The plasmids were transformed into E. coli BL21 (De3) pLysS (Invitrogen, USA) for expression. The transformed cells were cultured in 1 L of LB containing 30 μg/ml kanamycin at 37°C until the OD600 reached 0.6. Next, protein expression was induced with 1 mM isopropyl β-D-1-thiogalactopyranoside (IPTG) at 24°C for 20 h. Cells were harvested by centrifugation at 12,000 ×g for 25 min and 4°C. The pellet was resuspended in 50 ml 50 mM Tris-HCl buffer (pH 7.0) containing 300 mM NaCl and disrupted by sonication. After centrifugation at 12,000 ×g for 30 min and 4°C, the supernatant was applied to a Ni-NTA agarose column (Qiagen, Germany) and washed with 50 mM Tris-HCl buffer (pH 8.0) containing 300 mM NaCl and 20 mM imidazole. CPV-2 NS1 endonuclease was eluted with 50 mM Tris-HCl buffer (pH 8.0) containing 300 mM NaCl, and 250 mM imidazole, and dialyzed against 50 mM Tris-HCl (pH 7.0) containing 300 mM NaCl at 4°C overnight. The purified protein was stored at −20°C until required.
CPV-2 NS1 endonuclease activity was measured using an FRET substrate as described above. The reaction mixture was composed of 1.25 μg endonuclease and 0.6 μM FRET in 50 mM Tris-HCl buffer (pH 7.0). The reaction was run at 37°C with continuous monitoring of fluorescence for 10 min. Relative fluorescence units (RFUs) were measured using a SpectraMax M3 fluorescence plate reader (Molecular Devices, USA) with an excitation wavelength of 495 nm and an emission wavelength of 517 nm.
Thirty-one compounds, extracted sesame cake, turmeric, and yerba mate were tested for inhibitory effects against CPV-2 NS1 endonuclease. For screening, thirty-one compounds, turmeric, and yerba mate were dissolved in dimethyl sulfoxide (DMSO) to 5 mM or 10 mg/ml as stock solutions. Sesame cake extract (10 mg/ml) was solubilized in water. The reaction was initiated by adding 0.6 μM FRET substrate to a mixture of 50 μM compound and 1.25 μg endonuclease in 50 mM Tris-HCl buffer (pH 7.0) containing 300 mM NaCl. The reaction was run at 37°C for 3 min using a SpectraMax M3 fluorescence plate reader with an excitation wavelength of 495 nm and emission wavelength of 517 nm. Inhibitory activity was calculated using the following equation:
Inhibition activity (%) 100-[(S-S0)÷(C-C0)]×100
where C is RFU of the control (enzyme, buffer, and substrate) after a 3 min reaction, C0 is the RFU of the control at 0 min, S is the RFU of the sample (enzyme, buffer, inhibitor, and substrate) after 3 min, and S0 is the RFU of the sample at 0 min.
We determined the 50% inhibitory concentrations (IC50) of the six natural compounds, extracted turmeric, yerba mate, and sesame cake relative to the inhibitor-free control. The IC50 values of curcumin, and extracted sesame cake were calculated using a four-parameter logistic curve (4PL) using Prism v. 8 software (GraphPad Software Inc., USA). […] 8 software.

bird = conditions: free curcumin 30 mg/kg of feed, cited from earlier work
canine = test system: canine; parameters: method as in Campigotto et al., 34; conditions: diet containing curcumin; ref Campigotto et al., 34; cited from earlier work
all animals = test system: all animals; parameters: method as in PMID 42087962; conditions: cited from earlier work
beagle dogs = test system: beagle dogs; parameters: method as in Yang et al. (2022), 42; conditions: dietary supplementation at 2.5 g/kg, ref Yang et al. (2022), 42; cited from earlier work
[1] = ref Marchiori et al. (2019), 49

T1 sequence (P12929 1-277): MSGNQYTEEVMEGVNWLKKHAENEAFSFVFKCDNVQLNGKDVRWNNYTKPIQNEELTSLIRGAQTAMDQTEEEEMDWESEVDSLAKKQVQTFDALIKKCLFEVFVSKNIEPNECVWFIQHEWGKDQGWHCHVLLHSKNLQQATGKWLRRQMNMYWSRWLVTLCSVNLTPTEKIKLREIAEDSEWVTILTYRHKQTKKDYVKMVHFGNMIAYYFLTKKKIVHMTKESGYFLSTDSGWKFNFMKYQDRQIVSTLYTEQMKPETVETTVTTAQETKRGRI

SMILES	Inhibition (%) at 50 μM (CPV-2 NS1 endonuclease) [%]	inhibition at 50 µM (CPV-2 NS1 endonuclease) [%]	fold higher CPV-2 NS1 endonuclease inhibitory activity than demethoxycurcumin (CPV-2 NS1 endonuclease; ratio of IC50 values) [fold]	IC50 (CPV-2 NS1 endonuclease) [nM]	antioxidant capacity versus control group (bird)	egg production versus controls (bird; [1])	egg weight and mass versus controls (bird; [1])	effect on canine health (canine)	safe proposed maximum level in complete feed (all animals) [mg/kg]	effect on environmental stress-induced symptoms (beagle dogs)
COc1cc(/C=C/C(=O)CC(=O)/C=C/c2ccc(O)c(OC)c2)ccc1O [Curcumin]	100	> 95	2.17	290 ± 70	higher antioxidant capacity than the control group	higher	higher	enhanced canine health by stimulating the antioxidant system and erythropoiesis	–	–
O=C(OCC1OC(OC(=O)c2cc(O)c(O)c(OC(=O)c3cc(O)c(O)c(O)c3)c2)C(OC(=O)c2cc(O)c(O)c(OC(=O)c3cc(O)c(O)c(O)c3)c2)C(OC(=O)c2cc(O)c(O)c(OC(=O)c3cc(O)c(O)c(O)c3)c2)C1OC(=O)c1cc(O)c(O)c(OC(=O)c2cc(O)c(O)c(O)c2)c1)c1cc(O)c(O)c(OC(=O)c2cc(O)c(O)c(O)c2)c1 (centres unmarked) [Tannic acid]	–	–	–	1180 ± 100	–	–	–	–	≤ 15	relieved environmental stress-induced diarrheal symptoms, inflammatory response, and oxidative stress
Cc1c(C)c2c(c(C)c1O)CC[C@@](C)(CCC[C@H](C)CCC[C@H](C)CCCC(C)C)O2 [α-Tocopherol (Vitamin E), α-Tocopherol]	98 ± 3	> 95	–	8030 ± 800	–	–	–	–	–	–
